Values of other authors as cited in patent publication US20240065974A1, “ORAL THIN FILM” (LTS Lohmann Therapie-Systeme AG, priority 2021, published 2024).

Conditions: compared with (R)-ketamine

SMILES: CNC1(c2ccccc2Cl)CCCCC1=O (racemic) [(S)-ketamine, (S)-(±)-2-(2-chlorophenyl)-2-(methylamino)cyclohexan-1-one]
- Analgesic and anaesthetic potency relative to the (R) form: approximately three times higher
